Source: patent publication US8629251B2, “Specific detection and quantification of phosphatidic acid using an Arabidopsis trigalactosyldiacylglycerol-4 (TGD4) protein” (Board of Trustees of Michigan State University, priority 2008, dated 2014)
Entries after “also recorded” stand apart in the source; their conditions may differ.

Tests used:
[1] = target: T1, Arabidopsis TGD2, DsRed-TGD2C WT (DR-WT) fusion protein, residues 119-381, SEQ ID NO:107 (Arabidopsis thaliana, UniProt Q9LTR2); assay: Liposome-association assay (mixed PA/PC liposomes), DsRed-TGD2C WT; format: binding
T1 construct: made in house; host or cells: Escherichia coli BL21 (DE3)
T1 sequence (Q9LTR2 119-381): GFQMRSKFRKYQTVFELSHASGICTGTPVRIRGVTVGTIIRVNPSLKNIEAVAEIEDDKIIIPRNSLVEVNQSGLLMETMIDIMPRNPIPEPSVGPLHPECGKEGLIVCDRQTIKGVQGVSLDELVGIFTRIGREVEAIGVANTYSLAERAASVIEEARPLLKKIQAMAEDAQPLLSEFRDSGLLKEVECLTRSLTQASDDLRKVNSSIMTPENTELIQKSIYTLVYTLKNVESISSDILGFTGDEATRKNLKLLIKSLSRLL
Procedure: FIG. 2A: Analysis by liposome-association assay. A mixture of dioleoyl-PA and dioleoyl-PC was used where the weight percent of PA was varied from 0-100% (wt/wt), maintaining the total lipid invariant at 250 μg. 1 μg protein was used. P, protein recovered in the absence of lipids.
In this assay, purified recombinant proteins were incubated with liposomes for 30 min at 30° C. before centrifugation at 20,000 g for 10 min to pellet the liposomes. Proteins bound to the liposomes were found associated with the lipid pellet, whereas non-binding proteins remained in the supernatant. In an effort to determine the optimal concentration of PA required for high specificity binding, a PA/PC liposome mixture containing varying weight fractions of PA was prepared and incubated with DsRed-TGD2CWT or DsRed alone.
(§1) The liposome association assay was performed as previously reported. (31). Briefly, lipids (dioleoyl-phosphatidylcholine, DOPC or dioleoyl-PA, DOPA) were incubated in TBS (50 mM Tris-HCl, pH 7; 0.1 M NaCl) at 37° C. for an hour followed by vigorous vortexing for 5 min. The liposomes were precipitated at 20,000 g and washed twice with ice-cold TBS.
(§2) Liposomes (200 μg) were mixed with purified DsRed-TGD2 fusion protein and TBS to make a final 100 μL solution. The mixture was incubated at 30° C. for 30 min and washed twice with ice-cold TBS by centrifugation at 20,000 g at 4° C. The liposome pellet mixed with sample buffer was analyzed by SDS-PAGE (28). Immuno-detection of the His-tagged protein was accomplished using the above mentioned Penta-His antibody at 1:15,000 and the anti mouse antibody at 1:75,000 dilution.
(§3) The protein band was visualized by chemiluminescent detection kit from Sigma. The autoradiography film was scanned, distinct protein bands were quantified using computer software Multi Gauge V3.0 (Fujifilm USA, Valhalla, N.Y.) and resulted data were plotted and analyzed by OriginPro8 (Origin lab corporation, Northampton, Mass.).

[2] = target: T2, Arabidopsis TGD2, DsRed-TGD2C minimal domain (DR-25, TGD2C T8, residues 201-225, SEQ ID NO:12) (Arabidopsis thaliana, UniProt Q9LTR2); assay: Liposome-association assay, minimal domain DR-25; format: binding
T2 sequence (Q9LTR2 201-225): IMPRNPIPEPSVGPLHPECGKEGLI
Procedure: as §1, §2, §3

[3] = target: Arabidopsis TGD2, DsRed-TGD2C D1 (Δ221-250, SEQ ID NO:43) (Arabidopsis thaliana, UniProt Q9LTR2, DEL221-250); assay: Liposome-association assay, TGD2C D1 (Δ221-250); format: binding; conditions: FIG. 3C
Procedure: as §1, §2, §3

[4] = target: T3, Arabidopsis TGD4, TGD4N-DsRED-His (N-terminal fragment 1-286, SEQ ID NO:130) (Arabidopsis thaliana, UniProt Q9M903); assay: Liposome association assay, TGD4N-DsRED-His; format: binding; conditions: dioleoyl-PtdOH/dioleoyl-PtdCho liposomes, 0 to 80% PtdOH, FIG. 19B
T3 construct: made in house; host or cells: Escherichia coli BL21 (DE3)
T3 sequence (Q9M903 1-286): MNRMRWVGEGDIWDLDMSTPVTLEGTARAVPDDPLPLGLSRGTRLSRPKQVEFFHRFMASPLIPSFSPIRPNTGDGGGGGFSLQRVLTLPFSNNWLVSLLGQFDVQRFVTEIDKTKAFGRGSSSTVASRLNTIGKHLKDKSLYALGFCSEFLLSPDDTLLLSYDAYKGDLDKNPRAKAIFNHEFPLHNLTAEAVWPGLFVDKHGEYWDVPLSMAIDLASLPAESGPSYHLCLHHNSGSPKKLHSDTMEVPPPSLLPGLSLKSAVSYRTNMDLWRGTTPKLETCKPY
Procedure: (§4) Liposome Association Assay:
(§5) The liposome association assay was adapted from (Awai et al., 2006, Lu and Benning, 2009) with minor modifications. Dioleoyl-PtdCho and PtdOH with different acyl chain lengths and desaturation levels were used for making liposomes. In other liposomes 1-palmitoyl-2-(12-((7-nitro-2-1,3-benzoxadiazol-4-yl)amino)dodecanoyl)-sn-glycero-3-phosphate (NBD-PtdOH; Avanti, Alabaster, Ala.) was used. The lipids were mixed at indicated ratios to give a total lipid amount of 250 μg. The lipids were dried under a stream of nitrogen, resuspended in 0.5 ml TBS buffer with 0.2 M choline chloride and hydrated at 37° C. for 1 hour followed by vigorous vortexing for 2 minutes. The resulting multi-lamellar vesicles were centrifuged at 13,000×g for 10 minutes and then washed once with TBS buffer containing 0.2 M choline chloride. The liposomes were resuspended into 100 μl TBS buffer with 0.2 M choline chloride and incubated with 2 μg purified DsRED-TGD4-His protein and its derivatives. The protein liposome mixture was incubated on ice for 30 minutes followed by centrifugation at 13,000×g for 10 minutes and two washes with 500 μl TBS containing 0.2 M choline chloride. The resulting protein-liposome pellet was resuspended in 20 μl 2× Laemmli buffer (Laemmli, 1970) and processed by SDS-PAGE (Shapiro and Maizel, 1969).

[5] = target: T4, Arabidopsis TGD4, DsRED-TGD4C-His (C-terminal fragment 309-479, SEQ ID NO: 131) (Arabidopsis thaliana, UniProt Q9M903); assay: Liposome association assay, DsRED-TGD4C-His; format: binding; conditions: dioleoyl-PtdOH/dioleoyl-PtdCho liposomes, 0 to 80% PtdOH, FIG. 19B
T4 sequence (Q9M903 309-479): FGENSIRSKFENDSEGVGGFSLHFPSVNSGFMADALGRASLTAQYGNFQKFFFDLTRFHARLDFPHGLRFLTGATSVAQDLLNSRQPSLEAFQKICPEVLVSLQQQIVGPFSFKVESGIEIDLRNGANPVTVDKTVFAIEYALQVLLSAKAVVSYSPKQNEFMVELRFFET
Procedure: as §4, §5

[6] = target: T5, Arabidopsis TGD4, DsRED-ΔTGD4-His (hydrophobic region 287D-309F deleted, SEQ ID NO:133) (Arabidopsis thaliana, UniProt Q9M903, DEL287-309); assay: Liposome association assay, DsRED-ΔTGD4-His; format: binding; conditions: dioleoyl-PtdOH/dioleoyl-PtdCho liposomes, 0 to 80% PtdOH, FIG. 19B
T5 construct: b369 deletes nt 859-924 (22 codons)
Procedure: as §4, §5

RafC (Raf-1 kinase) = conditions: literature (ref. 11); cited from earlier work
[7] = DR-WT as quantification control, mixed PA/PC liposomes, FIGS. 5A-5C

T5 sequence (Q9M903 other isoform, or with tags, fused parts or gaps DEL287-309): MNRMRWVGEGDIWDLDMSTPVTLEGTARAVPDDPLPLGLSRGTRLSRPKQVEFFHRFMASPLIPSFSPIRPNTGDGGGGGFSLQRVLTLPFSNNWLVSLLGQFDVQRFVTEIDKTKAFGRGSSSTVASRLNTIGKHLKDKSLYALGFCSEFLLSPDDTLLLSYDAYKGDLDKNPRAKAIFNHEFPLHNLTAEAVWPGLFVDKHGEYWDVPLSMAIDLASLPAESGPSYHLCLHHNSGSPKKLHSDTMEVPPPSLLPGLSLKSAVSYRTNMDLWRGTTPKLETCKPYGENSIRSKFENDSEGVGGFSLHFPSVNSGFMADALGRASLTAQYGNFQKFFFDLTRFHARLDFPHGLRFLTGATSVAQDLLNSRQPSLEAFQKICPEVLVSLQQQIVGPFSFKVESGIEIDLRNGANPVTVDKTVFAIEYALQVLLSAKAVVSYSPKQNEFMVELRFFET
Chain of Arabidopsis TGD2, DsRed-TGD2C D1 (Δ221-250, SEQ ID NO:43) (Q9LTR2 other isoform, or with tags, fused parts or gaps DEL221-250): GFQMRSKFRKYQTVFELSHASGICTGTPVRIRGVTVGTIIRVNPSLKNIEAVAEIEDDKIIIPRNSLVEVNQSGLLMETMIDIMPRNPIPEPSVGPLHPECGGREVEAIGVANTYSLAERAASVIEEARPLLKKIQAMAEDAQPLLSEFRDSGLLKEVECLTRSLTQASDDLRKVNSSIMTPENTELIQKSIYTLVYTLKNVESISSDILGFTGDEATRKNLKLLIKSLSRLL

CCCCCCCC/C=C\CCCCCCCC(=O)OC[C@H](COP(=O)(O)O)OC(=O)CCCCCCC/C=C\CCCCCCCC [PA, phosphatidic acid]
Hill number, PA binding [1, 7]: 2.8 | modified Kd, PA binding [1, 7]: 37.66 mol % | binding to PA or PC ([1]; PC, PA/PC or PA liposomes, FIG. 3B): significant binding | Hill number, PA binding ([1]; dioleoyl-PA/dioleoyl-PC liposomes, FIG. 2B): 5.8 | PA binding ([2]; PA liposomes, FIG. 4A): sufficient to mediate specific binding to PA | cooperativity of PA binding ([2]; mixed PA/PC liposomes, FIG. 5): loses positive cooperativity; also recorded: not cooperative | PA binding [3]: did not seem to affect PA binding | PtdOH binding affinity [4]: comparable to the full-length protein DsRED-TGD4-His | PtdOH binding affinity [5]: much lower affinity compared to the wild-type protein DsRED-TGD4-His but still bound PtdOH | PtdOH binding activity [6]: did not require the central hydrophobic region of TGD4 | RafC-PA association (RafC (Raf-1 kinase)): 20 mol % PA
